# Measured values as given in ChEMBL document CHEMBL5150013, “The Repertoire of Small-Molecule PET Probes for Neuroinflammation Imaging: Challenges and Opportunities beyond TSPO” (J Med Chem, 2021).
# What was measured:
# [1] = mouse, in vivo
# [2] = mouse, in vivo, 20 min
# [3] = target: Prostaglandin G/H synthase 1 (Homo sapiens, UniProt P23219)
# physchem = conditions: octanol/water
# [4] = rhesus monkey, in vivo
# [5] = primates, Brain, 1.417 h
# [6] = rhesus monkey, in vivo, 7 min
# [7] = rhesus monkey, in vivo, 7 min; remark: listed apart in the source
# [8] = primates, Brain
# [9] = cynomolgus monkey, in vivo, 2 h
# in vivo [10] = conditions: mouse
# in vivo [11] = conditions: mouse; remark: listed apart in the source
# P2Y purinoceptor 12 = P2Y purinoceptor 12 (Homo sapiens, UniProt Q9H244); format: functional
# P2X purinoceptor 7 [12] = target: T1, P2X purinoceptor 7 (Homo sapiens, UniProt Q99572)
# T1 sequence (Q99572 whole entry): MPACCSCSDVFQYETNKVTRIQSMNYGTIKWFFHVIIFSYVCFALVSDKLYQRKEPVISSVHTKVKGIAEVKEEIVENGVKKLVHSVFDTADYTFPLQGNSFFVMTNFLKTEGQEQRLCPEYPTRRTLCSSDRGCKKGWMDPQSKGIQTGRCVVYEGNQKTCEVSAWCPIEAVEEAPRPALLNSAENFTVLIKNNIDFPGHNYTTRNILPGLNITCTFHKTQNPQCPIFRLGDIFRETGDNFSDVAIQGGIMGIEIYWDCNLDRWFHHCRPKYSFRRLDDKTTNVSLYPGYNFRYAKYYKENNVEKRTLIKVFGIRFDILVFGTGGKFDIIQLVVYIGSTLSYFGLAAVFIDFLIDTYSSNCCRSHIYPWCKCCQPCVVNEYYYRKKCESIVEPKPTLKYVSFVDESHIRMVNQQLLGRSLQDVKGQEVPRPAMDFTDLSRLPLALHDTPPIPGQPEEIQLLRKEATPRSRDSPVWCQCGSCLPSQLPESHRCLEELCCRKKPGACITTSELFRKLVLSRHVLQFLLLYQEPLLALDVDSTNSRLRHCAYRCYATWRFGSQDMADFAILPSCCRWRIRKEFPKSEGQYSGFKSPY
# [13] = mouse, in vivo; remark: listed apart in the source
# in vivo [14] = conditions: mouse; remark: listed apart in the source
# [15] = rat, in vivo, 2 h
# [16] = target: T2, Prostaglandin G/H synthase 2 (Homo sapiens, UniProt P35354)
# T2 sequence (P35354 whole entry): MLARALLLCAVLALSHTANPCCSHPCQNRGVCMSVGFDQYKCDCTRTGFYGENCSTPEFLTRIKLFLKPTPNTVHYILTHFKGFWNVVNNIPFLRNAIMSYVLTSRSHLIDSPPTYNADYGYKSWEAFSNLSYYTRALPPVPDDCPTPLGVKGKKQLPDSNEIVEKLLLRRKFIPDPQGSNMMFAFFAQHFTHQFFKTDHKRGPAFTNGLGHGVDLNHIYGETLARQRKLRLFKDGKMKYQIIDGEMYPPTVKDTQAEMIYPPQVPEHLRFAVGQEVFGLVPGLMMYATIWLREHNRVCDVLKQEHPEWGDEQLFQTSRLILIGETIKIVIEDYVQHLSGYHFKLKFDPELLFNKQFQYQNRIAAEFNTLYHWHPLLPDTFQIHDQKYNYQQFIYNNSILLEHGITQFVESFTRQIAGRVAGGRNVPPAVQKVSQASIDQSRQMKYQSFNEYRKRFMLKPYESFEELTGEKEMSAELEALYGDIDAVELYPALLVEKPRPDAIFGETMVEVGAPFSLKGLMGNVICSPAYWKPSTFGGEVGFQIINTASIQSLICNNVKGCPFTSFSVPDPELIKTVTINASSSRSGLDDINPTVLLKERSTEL
# [17] = human, Brain, 2 min
# [18] = mouse, in vivo; remark: listed apart in the source
# [19] = primates, Brain, 5 min
# [20] = target: Sphingosine 1-phosphate receptor 2 (Homo sapiens, UniProt O95136)
# [21] = primates, Brain; remark: listed apart in the source
# in vivo [22] = conditions: rat
# [23] = papio anubis, in vivo
# [24] = target: T3, Amine oxidase [flavin-containing] B (Homo sapiens, UniProt P27338)
# T3 sequence (P27338 whole entry): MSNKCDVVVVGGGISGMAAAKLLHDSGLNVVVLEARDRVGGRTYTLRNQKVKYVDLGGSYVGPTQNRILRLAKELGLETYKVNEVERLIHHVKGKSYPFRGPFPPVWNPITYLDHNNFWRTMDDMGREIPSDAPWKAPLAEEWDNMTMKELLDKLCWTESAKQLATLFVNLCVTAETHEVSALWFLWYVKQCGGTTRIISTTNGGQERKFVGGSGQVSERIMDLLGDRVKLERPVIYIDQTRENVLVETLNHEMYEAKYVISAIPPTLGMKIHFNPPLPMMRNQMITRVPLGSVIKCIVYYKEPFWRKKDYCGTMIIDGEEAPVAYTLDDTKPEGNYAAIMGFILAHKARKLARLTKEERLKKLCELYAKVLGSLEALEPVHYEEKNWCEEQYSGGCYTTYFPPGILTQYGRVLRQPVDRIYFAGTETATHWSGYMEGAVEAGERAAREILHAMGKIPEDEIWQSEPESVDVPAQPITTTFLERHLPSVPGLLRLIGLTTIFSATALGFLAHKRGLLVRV
# [25] = papio anubis, in vivo; remark: listed apart in the source
# [26] = mouse, in vivo, 10 min
# [27] = primates, Brain, 4 min
# [28] = target: Sphingosine 1-phosphate receptor 1 (Homo sapiens, UniProt P21453)
# Cannabinoid receptor 2 = Cannabinoid receptor 2 (Homo sapiens, UniProt P34972)
# P2X purinoceptor 7 [29] = target: T1, P2X purinoceptor 7; remark: listed apart in the source
# [30] = papio papio, in vivo
# [31] = target: T3, Amine oxidase [flavin-containing] B; remark: listed apart in the source
# in vivo [32] = conditions: C3H, mouse, iv, 10 mg/kg
# in vivo [33] = conditions: C3H, mouse, iv, 10 mg/kg; remark: listed apart in the source
# [34] = mouse, in vivo, 0.05 h
# in vivo [35] = conditions: mouse; remark: listed apart in the source
# in vivo [36] = conditions: mouse, hcc4006
# [37] = mouse, in vivo, 0.5 h
# [38] = mouse, in vivo, 0.5 h; remark: listed apart in the source
# in vivo [39] = conditions: C57BL/6, mouse
# [40] = rhesus monkey, in vivo; remark: listed apart in the source
# Prostaglandin G/H synthase 1, sequence (P23219 whole entry): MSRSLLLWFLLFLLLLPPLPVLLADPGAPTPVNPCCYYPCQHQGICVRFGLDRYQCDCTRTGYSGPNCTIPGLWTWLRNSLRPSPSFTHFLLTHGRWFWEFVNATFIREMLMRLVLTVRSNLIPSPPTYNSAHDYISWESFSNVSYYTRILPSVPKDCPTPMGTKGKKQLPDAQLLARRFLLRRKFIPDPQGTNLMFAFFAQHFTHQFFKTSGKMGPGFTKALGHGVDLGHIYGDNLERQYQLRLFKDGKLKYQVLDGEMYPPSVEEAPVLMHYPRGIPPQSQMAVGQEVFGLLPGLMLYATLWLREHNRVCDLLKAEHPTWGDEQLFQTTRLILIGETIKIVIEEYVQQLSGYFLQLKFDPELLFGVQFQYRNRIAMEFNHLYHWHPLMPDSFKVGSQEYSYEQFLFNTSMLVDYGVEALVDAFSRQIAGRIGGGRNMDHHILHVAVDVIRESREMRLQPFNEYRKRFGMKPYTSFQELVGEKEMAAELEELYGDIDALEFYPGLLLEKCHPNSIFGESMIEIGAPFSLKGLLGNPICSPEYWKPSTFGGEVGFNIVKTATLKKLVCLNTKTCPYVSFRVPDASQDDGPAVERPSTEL
# Sphingosine 1-phosphate receptor 2, sequence (O95136 whole entry): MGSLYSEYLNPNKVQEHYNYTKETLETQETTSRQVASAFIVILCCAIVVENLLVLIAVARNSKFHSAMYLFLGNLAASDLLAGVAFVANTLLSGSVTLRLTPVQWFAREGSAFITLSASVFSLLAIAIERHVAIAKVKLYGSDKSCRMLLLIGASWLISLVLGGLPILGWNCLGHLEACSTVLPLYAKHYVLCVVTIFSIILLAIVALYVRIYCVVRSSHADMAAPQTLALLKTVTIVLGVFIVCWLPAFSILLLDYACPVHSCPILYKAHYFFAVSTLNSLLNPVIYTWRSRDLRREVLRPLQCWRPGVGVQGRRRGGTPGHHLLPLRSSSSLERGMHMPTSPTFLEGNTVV
# P2Y purinoceptor 12, sequence (Q9H244 whole entry): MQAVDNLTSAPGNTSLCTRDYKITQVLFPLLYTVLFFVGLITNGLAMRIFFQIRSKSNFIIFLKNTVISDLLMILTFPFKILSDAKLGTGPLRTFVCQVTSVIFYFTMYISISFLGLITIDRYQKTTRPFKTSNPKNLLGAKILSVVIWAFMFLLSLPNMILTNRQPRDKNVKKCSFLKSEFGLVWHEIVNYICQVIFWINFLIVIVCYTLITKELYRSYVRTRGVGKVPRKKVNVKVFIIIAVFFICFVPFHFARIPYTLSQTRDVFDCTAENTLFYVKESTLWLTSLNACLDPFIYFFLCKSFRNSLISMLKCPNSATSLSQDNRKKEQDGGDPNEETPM
# Cannabinoid receptor 2, sequence (P34972 whole entry): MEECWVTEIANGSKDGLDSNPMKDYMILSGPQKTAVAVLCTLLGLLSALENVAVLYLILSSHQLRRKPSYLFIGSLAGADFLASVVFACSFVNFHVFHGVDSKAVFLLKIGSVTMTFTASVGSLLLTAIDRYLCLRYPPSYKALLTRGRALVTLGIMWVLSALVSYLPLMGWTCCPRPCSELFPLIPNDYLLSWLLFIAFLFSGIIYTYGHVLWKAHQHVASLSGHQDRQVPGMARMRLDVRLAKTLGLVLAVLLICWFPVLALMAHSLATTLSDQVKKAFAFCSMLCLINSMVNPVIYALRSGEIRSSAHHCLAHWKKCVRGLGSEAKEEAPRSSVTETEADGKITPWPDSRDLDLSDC
# Sphingosine 1-phosphate receptor 1, sequence (P21453 whole entry): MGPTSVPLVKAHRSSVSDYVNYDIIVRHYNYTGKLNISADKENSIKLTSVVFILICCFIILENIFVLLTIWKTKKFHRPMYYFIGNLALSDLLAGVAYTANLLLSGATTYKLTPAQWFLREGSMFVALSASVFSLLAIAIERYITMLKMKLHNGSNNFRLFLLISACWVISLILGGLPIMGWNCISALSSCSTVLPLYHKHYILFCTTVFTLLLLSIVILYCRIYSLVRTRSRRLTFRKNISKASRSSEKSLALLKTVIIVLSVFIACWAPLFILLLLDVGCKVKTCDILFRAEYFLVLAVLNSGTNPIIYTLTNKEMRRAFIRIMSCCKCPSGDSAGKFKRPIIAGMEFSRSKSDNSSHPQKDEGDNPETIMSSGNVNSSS
compound,measurement,setting,value
CN1c2cc(N)ccc2-c2ccc(N)cc2C1c1ccc(OCC[18F])cc1 (stereo not given),Drug uptake,[1],10 %ID/cm3
same,Drug uptake,[2],150%
[11CH3]Oc1ccc(-c2cnc(Cl)n2-c2ccc(S(N)(=O)=O)cc2)cc1F,IC50,[3],10000 nM
CCOCCn1cc(C(=O)NC23CC4CC(CC(C4)C2)C3)c(=O)c2cccc(OC)c21,logD,physchem,2.8
[11CH3]Oc1ccc(Cc2cn[nH]c2)nc1-c1cccc([N+](=O)[O-])c1,Vd,[4],37%
[11CH3]Oc1ccc(Cc2ccncc2)nc1-c1cccc([N+](=O)[O-])c1,Vd,[4],48%
[2H]C([2H])([18F])Oc1nc(-c2ccc(OC)cc2)n(-c2ccc(OC)cc2)n1,SUV,[5],1.99
same,SUV,[6],1.05
same,SUV,[7],4.11
same,SUV,[8],54%
C#CCN(C)[C@H](C[18F])Cc1ccccc1,SUV,[9],6
CS(=O)(=O)c1ccc(-c2cc(C(F)(F)F)nc(NCc3ccc([18F])cc3)n2)cc1,tissue uptake at 1 h,in vivo [10],3.79 %ID/g
same,tissue uptake at 1 h,in vivo [11],1.74 %ID/g
[11CH3]Oc1ccc(Cl)c(C(=O)NCC23CC4(F)CC(F)(CC(F)(C4)C2)C3)c1,EC50,P2Y purinoceptor 12,60 nM
[11CH3]N1C(=O)CC[C@H]1C(=O)NCc1cccc(C(F)(F)F)c1Cl,IC50,P2X purinoceptor 7 [12],3 nM
O=C1Nc2c(Cl)ccc(OCC[18F])c2C2(CCCCC2)N1,SUV,[13],1.74
same,tissue uptake,in vivo [14],5 %ID/g
CS(=O)(=O)c1ccc(-c2ccsc2-c2ccc(F)cc2)cc1,SUV,[15],0.17
same,Ki,[16],250 nM
CS(=O)(=O)c1ccc(-n2c(-c3ccc(O[11CH3])c(F)c3)cnc2Cl)cc1,IC50,[3],3300 nM
COC(=O)C([11CH3])c1cccc(C(=O)c2ccccc2)c1 (stereo not given),IC50,[3],47 nM
same,SUV,[17],1.5
same,SUV,[18],0.97
OCCOCc1ccc(-c2noc(-c3ccc(OCC[18F])c(C(F)(F)F)c3)n2)cc1,SUV,[19],3.2
Cc1nn(C)c2nc(NNC(=O)Nc3cc(Cl)nc(Cl)c3)cc(C(C)C)c12,IC50,[20],68.5 nM
NS(=O)(=O)c1ccc(-n2nc3ccccc3c2-c2ccc([18F])cc2)cc1,IC50,[3],30000 nM
COc1ccc(-n2nc(OCC(F)(F)F)nc2-c2ccc(O[11CH3])cc2)cc1,SUV,[5],1.99
same,SUV,[21],4.29
same,SUV,[8],54%
OCc1cn(Cc2ccc(-c3noc(-c4ccc(OCC[18F])c(C(F)(F)F)c4)n3)cc2)nn1,tissue uptake at 5 min,in vivo [22],0.46 %ID/g
COc1ccc(-c2nc(O[11CH3])nn2-c2ccc(OC)cc2)cc1,SUV,[5],0.62
same,SUV,[21],4.26
COCC1CN(c2noc3cc(OCCCC(F)(F)F)ccc23)[11C](=O)O1 (stereo not given),Vd,[23],10.9 ml/cm3
same,Ki,[24],2.9 nM
same,Vd,[25],10.3 ml/cm3
O=C(O)C1CN(Cc2ccc(-c3noc(-c4ccc(OCC[18F])c(C(F)(F)F)c4)n3)cc2)C1,tissue uptake at 5 min,in vivo [22],0.027 %ID/g
same,SUV,[26],7
Cc1ccc(-n2nc(C(F)(F)F)cc2-c2ccc(S(=O)(=O)Nc3ccc([18F])cc3)cc2)cc1,IC50,[3],100000 nM
OCC(O)c1ccc(-c2noc(-c3ccc(OCC[18F])c(C(F)(F)F)c3)n2)cc1 (stereo not given),SUV,[27],2.5
same,IC50,[28],15.4 nM
CCCCOc1c(OC)ccc2cc(C(=O)NC3CCCCC3)c(=O)[nH]c12,Ki,Cannabinoid receptor 2,9.6 nM
N#C/N=C(/NCc1ccc([18F])cc1)Nc1cccc2ncccc12,Ki,P2X purinoceptor 7 [29],2.9 nM
OCc1ccc(-c2noc(-c3ccc(OCC[18F])c(C(F)(F)F)c3)n2)cc1,SUV,[27],3.8
N#CCCn1nc(-c2ccc(OCc3ccccc3)cc2)o[11c]1=O,Drug uptake,[30],70%
same,IC50,[31],4 nM
CN1c2cc(N)ccc2-c2ccc(N)cc2C1c1ccc([18F])cc1 (stereo not given),SUV,[13],2.3
OCCOCCOCc1ccc(-c2noc(-c3ccc(OCC[18F])c(C(F)(F)F)c3)n2)cc1,SUV,[21],0.7
COc1ccc(CC(=O)NC(N/C(=N/C#N)Nc2cccc3ncccc23)C(C)(C)C)cc1O[11CH3] (stereo not given),IC50,P2X purinoceptor 7 [12],40 nM
CN([11CH3])CCc1ccccc1,tissue uptake at 1 h,in vivo [32],2.8 %ID/g
same,tissue uptake at 1 min,in vivo [33],7.9 %ID/g
[13CH3]N1C=C(C(N)=O)Cc2ccccc21,SUV,[34],3.5
Cc1ccc(-c2ccc3cc(OC[C@H](O)C[18F])ccc3n2)cn1,tissue uptake at 2 min,in vivo [35],0.2 %ID/g
same,tissue uptake at 2 min,in vivo [36],7.85 %ID/g
Cc1nn(C)c2nc(NNC(=O)C(C)c3cc(Cl)nc(O[11CH3])c3)cc(C(C)C)c12 (stereo not given),SUV,[37],0.48
same,SUV,[38],0.58
same,IC50,[20],9.52 nM
Cc1ccccc1-c1ccc(-c2nc(-c3ccc(CN(C)CCC(=O)O)c(F)c3)no2)cc1C(F)(F)F,tissue uptake at 1 h,in vivo [39],7 %ID/g
[11CH3]Oc1ccc(-c2c(-c3ccc(S(N)(=O)=O)cc3)[nH]c3ccccc23)cc1,IC50,[3],10000 nM
CS(=O)(=O)c1ccc(-c2cc(O[11CH3])nc(NCc3cccs3)n2)cc1,IC50,[3],> 1000 nM
same,Drug uptake,[40],41%
